What was measured:
[1] = biological target: T1, recombinant human secreted phospholipase A2 (Homo sapiens, UniProt P14555); assay: chromogenic assay for inhibitors of recombinant human secreted phospholipase A2; assay type: biochemical; details: diheptanoyl thio-PC substrate, pH 7.5, 40° C. for 30 minutes, absorbance at 405 nanometers, titrated in triplicate
T1 sequence (P14555 21-144): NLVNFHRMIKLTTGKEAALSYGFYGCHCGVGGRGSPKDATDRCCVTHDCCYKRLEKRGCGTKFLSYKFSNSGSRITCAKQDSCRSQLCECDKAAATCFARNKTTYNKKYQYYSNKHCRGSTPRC
Excerpt: The following chromogenic assay procedure was used to identify and evaluate inhibitors of recombinant human secreted phospholipase A2. The assay described herein has been adapted for high volume screening using 96 well microtiter plates. A general description of this assay method is found in the article, “Analysis of Human Synovial Fluid Phospholipase A2 on Short Chain Phosphatidylcholine-Mixed Micelles: Development of a Spectrophotometric Assay Suitable for a Microtiterplate Reader”, by Laure J. Reynolds, Lori L. Hughes, and Edward A Dennis, Analytical Biochemistry, 204, pp. 190-197, 1992 (the disclosure of which is incorporated herein by reference):
A measured volume of racemic dipheptanoyl thio PC supplied in chloroform at a concentration of 100 mg/ml is taken to dryness and redissolved in 10 millimolar TRITON X-100™ nonionic detergent aqueous solution. Reaction Buffer is added to the solution, then DTNB to give the Reaction Mixture.
The reaction mixture thus obtained contains 1 mM diheptanoly thio-PC substrate, 0.29 mm Triton X-100™ detergent, and 0.12 mm DTMB in a buffered aqueous solution at pH 7.5.
• 1. Add 0.2 ml reaction mixture to all wells; • 2. Add 10 ul test compound (or solvent blank) to appropriate wells, mix 20 seconds; • 3. Add 50 nanograms of sPLA2 (10 microliters) to appropriate wells; • 4. Incubate plate at 40° C. for 30 minutes; • 5. Read absorbance of wells at 405 nanometers with an automatic plate reader.
Tests were done in triplicate. Typically, compounds were tested at a final concentration of 5 ug/ml. […] Lack of color development at 405 nanometers evidenced inhibition. Compounds initially found to be active were re-assayed to confirm their activity and, if sufficiently active, IC50 values were determined. […] In all cases, % inhibition measured at 405 nanometers generated by enzyme reactions containing inhibitors relative to the uninhibited control reactions was determined. […] IC50 values were determined by plotting log concentration versus inhibition values in the range from 10-90% inhibition.

Row | Structure (SMILES) | IC50 [1] | melting point
1 | CCOC(=O)COc1c2ccccc2cc2c1c(C(=O)C(N)=O)c(CC)n2Cc1ccccc1 [Example 1, 2-[[3-(2-amino-1,2-dioxoethyl)-1-benzyl-2-ethyl-1H-benz[f]indol-4-yl]oxy]acetic acid ethyl ester] | 1.3 µM | –
2 | CCc1c(C(=O)C(N)=O)c2c(OCC(=O)O)c3ccccc3cc2n1Cc1ccccc1 [Example 3, 2-[[3-(2-amino-1,2-dioxoethyl)-1-benzyl-2-ethyl-1H-benz[f]indol-4-yl]oxy]acetic acid] | 1.06 µM | 243 to 253 °C (dec.)
3 | CCc1c(C(=O)C(N)=O)c2c(OCC(=O)OCc3ccccc3)c3ccccc3cc2n1Cc1ccccc1 [Example 2, 2-[[3-(2-amino-1,2-dioxoethyl)-1-benzyl-2-ethyl-1H-benz[f]indol-4-yl]oxy]acetic acid benzyl ester] | 14.3 µM | –

— US6930123B2, “sPLA2 inhibitors” (Eli Lilly and Company, priority 2000, dated 2005)
